Reference: patent US5360818A, “1,3-dioxane derivatives having protein kinase C inhibitory activity” (Sphinx Pharmaceuticals Corporation, priority 1993, dated 1994)

Tests used:
protein kinase C = assay: Protein kinase C inhibition assay (histone H1 phosphorylation); format: biochemical; conditions: rat brain enzyme; histone H1 substrate; 10 min
Procedure: A protein kinase C (PKC) assay is designed to duplicate the in vivo conditions required for protein kinase C function. Therefore, pH, salt and cofactor concentrations are similar to physiologic levels. A lysine rich histone, H1, was used in the assay as the phosphorylation acceptor-proteinbecause it is readily available and serves as a good substrate for protein kinase C. Enzyme was prepared from rat brain and purified to apparent homogeneity as determined by a single band on silver stained SDS-polyacrylamide.
In the screening assay, phosphatidylserine (PS) and DAG were co-sonicated to form unilamellar and multilamellar vesicles. The concentration of lipids in the assay were suboptimal to maximize the detection potential of the assay for inhibitors. Potential inhibitor compounds were added to the assay in dimethylsulfoxide at three concentrations to give final inhibitor concentrations of 4.3, 43 and 218 μM, respectively. The assay was started with the addition of enzyme and stopped after 10 min by the addition of 25% trichloroacetic acid (TCA) and 1.0 mg/ml bovine serum albumin (BSA). The radioactive histone product was retained and washed on glass fiber filters that allow the unreacted ^32 p-ATP to pass through. The amount of phosphorylation was determined by the radioactivity measured in a scintillation counter. Controls were included in every assay to measure background activity in the absence of enzyme, activity in the absence of lipids, and the maximum enzyme activity with saturating levels of the activator lipids.
Results of the protein kinase C assay are shown in Table 3 in the column labeled PKC. Results are shown as IC50, which is the concentration of test compound needed to inhibit 50% of the protein kinase C activity as compared with levels of protein kinase C activity in controls.

[1] = molecular target: T1, cAMP dependent protein kinase (PKA) (Bos taurus, UniProt P00517); assay: cAMP dependent protein kinase (PKA) assay; format: biochemical; conditions: 4.3, 43 and 218 μM; 10 min
T1 construct: no regulatory subunit
Procedure: Compounds found to be inhibitors of protein kinase C were tested for inhibitory activity against cAMP dependent protein kinase (PKA). This enzyme, like protein kinase C, plays an important role in cell-cell communication and is activated by a second messenger, cAMP. Secondary screening against PKA is useful for ascertaining the selectivity of the compounds of the invention. The catalytic subunit of PKA (Sigma Chemical Company, St. Louis, Mo.) was mixed with buffer before addition of the inhibitor in dimethylsulfoxide (DMSO). Potential inhibitor compounds were added to the assay in dimethylsulfoxide at three concentrations to give final inhibitor concentrations of 4.3, 43 and 218 μM, respectively. The assay was started by the addition of 32P-ATP and the reaction was allowed to proceed for 10 min before stopping with 25% trichloroacetic acid (TCA) and 1.0 mg/ml bovine serum albumin (BSA). Phosphorylated protein was then isolated by filtration and the radioactivity was counted in a beta scintillation counter.

[2] = test system: PMA-stimulated neutrophils; assay: Neutrophil superoxide anion release assay; format: cell-based; conditions: Homo sapiens, 0.5 h, 37° C., 30 minutes, cytochrome c reduction
Procedure: Neutrophils were isolated form whole blood collected from human volunteers. All reagent materials are obtained from Sigma Chemical Company with the exception of isotonic saline (Travenol Laboratories, Inc., Deerfield, Ill.) and lymphocyte separation medium (Organon Teknika, Durham, N.C.).
Whole blood was drawn and mixed with sodium heparin to a final concentration of 10 units/ml to prevent clotting. An equal volume of 3.0 % dextran in isotonic saline was added, mixed, and allowed to settle for 30 minutes to bind red blood cells (RBC). Supernatant was removed, underlayered with lymphocyte separation medium and centrifuged for 40 min at 400 xg in a centrifuge (Beckman GPR, Norcross, Ga.). The pellet was alternately taken up in 0.2% and 1.6% NaCl to lyse RBCs before washing with Hank's Balanced Salt Solution (HBSS). […]
The neutrophil cell concentration was adjusted to 2×10^6 cells/ml with HBSS before adding 0.8 ml cells to 12×75 mm polypropylene test tubes (Fisher Scientific). […] Optical density (OD) of cytochrome c was read in a spectrophotometer (Shimadzu) at 550 nm. […] Reducing cytochrome c increases its absorbance, and the change in OD of cytochrome c is proportional to the amount of […] produced by PMA stimulation. […] Inhibition is expressed as IC50 μM and is the amount of test compound that will inhibit fifty percent of the PMA-stimulated respiratory outburst, i.e. […] production.

[3] = test system: keratinocytes (NHEK cells); assay: Human keratinocyte inhibition (3H-thymidine incorporation); format: cell-based
Text: (§1) Cells were checked microscopically to determine detachment from surfaces, and plates were then harvested with a cell harvester (PHD, Cambridge Technology, Inc.) Filter papers corresponding to wells were placed in scintillation vials and counted to determine the amount of ^3 H-thymidine incorporated by the cells. Test agent response was compared to a positive control of cell wells with culture media only to determine the IC50. IC50 is the concentration of test compound required to inhibit fifty percent of the incorporation of ^3 H-thymidine into proliferating cells not exposed to test agent. Uptake of 3H-thymidine is a standard test for measuring the metabolism of cells. Cells which are actively proliferating take up ^3 H-thymidine whereas cells that are not proliferating take up ^3 H-thymidine at much slower rates or not at all. Test agents that inhibit the uptake of ^3 H-thymidine thus slow the growth of cells.
Proliferating keratinocytes (NHEK cells purchased from Clonetics, Inc., San Diego, Calif.) in second passage were grown in Keratinocyte Growth Medium (KGM) (Clonetics, Inc.) Cells were trypsinized (0.025% trypsin, Clonetics), counted with a hemacytometer (Scientific Products), and seeded at a concentration of 2,500 cells/well in a 96 well microtiter plate. After allowing cells to attach to the surface overnight, the culture medium was aspirated and replaced with 100 μl of fresh KGM. Test agents were evaluated and IC50 's were determined according to the ^3 H-thymidine incorporation procedures described as in Example 18. IC50 is the concentration of test compound required to inhibit fifty percent of the incorporation of ^3 H-thymidine into proliferating cells not exposed to test agent.

[4] = test system: MCF-7 human breast tumor cell line; assay: Human tumor cell growth inhibition (3H-thymidine incorporation), MCF-7; format: cell-based; conditions: MCF7, 18 to 24 hrs
Text: (§2) MCF-7 a human breast tumor cell line and MCF-7/ADR an adriamycin resistant line of MCF-7 cells were obtained from the National Cancer Institute, Frederick, Md. CEM cells (ATCC accession number CCL 119) were obtained from the American Type Culture Collection, Rockville, Md.
(§3) Human tumor cells were trypsinized with 0.05% trypsin (GIBCO), counted with a hemacytometer and seeded at a concentration of 10,000 cells/well in a 96 well microtiter plate. After allowing cells to attach to the surface overnight, the culture medium was aspirated and replaced with 100 μl of fresh medium. Test agents were diluted to determine dose response at 2X final concentration and added in quadruplicate at 100 μl/well to bring the total volume of each well to 200 μl. The microtiter plate was then incubated at 37° C. 5% CO2 overnight for 18 to 24 hrs before ^3 H-thymidine was added at a concentration of 0.5 μCi/well in 50 μl culture medium. The plate was incubated again for 4 hrs under the same conditions as above. Supernatant was then aspirated and 50 μl of 0.05% trypsin (GIBCO) was added to each well.
as §1

[5] = test system: MCF-7/ADR adriamycin resistant line of MCF-7 cells; assay: Human tumor cell growth inhibition (3H-thymidine incorporation), MCF-7/ADR; format: cell-based; conditions: NCI/ADR-RES, 18 to 24 hrs
Text: as §2, §3, §1

Structure (SMILES) | IC50 (protein kinase C) [µM] | inhibitory activity against cAMP dependent protein kinase (PKA) [1] | IC50 [2] [µM] | IC50 [3] [µM] | IC50 [4] [µM] | IC50 [5] [µM]
CCCCCCCCCCCCCCCC1OCOCC1N (stereo not shown) [Compound 24] | 83 |  |  |  |  | 
CCCCCCCCCCCCCCC[C@@H]1OC(C)(C)OC[C@H]1NC(C)=N (relative stereo) [Compound 10, Erythro-5-Acetamidino-2,2-dimethyl-4-pentadecyl-1,3-dioxane] | 29 | no effect on PKA activity | 1.52 |  |  | 
CCCCCCCCCCCCCCC[C@H](O)[C@H](CO)NC(=O)OC(C)(C)C [Compound 11, Tert-Butyl (1S, 2S)-N-[2-hydroxy-1-(hydroxymethyl)heptadecyl]carbamate] |  |  |  | 0.8 | 3.2 | 
CCCCCCCCCCCCCCC[C@@H]1OC(c2ccccc2)OC[C@@H]1N (stereo partly drawn) [Compound 19, Threo-5-Amino-2-phenyl-4-pentadecyl-1,3-dioxane] | 182 | no effect on PKA activity |  |  |  | 
CCCCCCCCCCCCCCC[C@@H]1OC(C)(C)OC[C@@H]1N [Compound 13, Threo-(2S, 3S) -5-Amino-2,2-dimethyl-4-pentadecyl-1,3-dioxane] | 121 | no effect on PKA activity |  |  | 5.1 | 6.3
CCCCCCCCCCCCCCC[C@@H]1OC(C)(C)OC[C@H]1N (relative stereo) [Compound 5, Erythro-2,2-dimethyl-5-amino-4-pentadecyl-1,3-dioxane] | 130 | no effect on PKA activity | 13.1 |  | 7.7 | 6.6
CCCCCCCCCCCCCCC[C@@H]1OC(C)(C)OC[C@@H]1N (relative stereo) [Compound 6, 2,2-Dimethyl-5-amino-4-pentadecyl-1,3-dioxane] | 120 | no effect on PKA activity |  | 4.7 | 6 | 5.5
CCCCCCCCCCCCCCC[C@@H]1OC(C)OC[C@@H]1N (stereo partly drawn) [Compound 18, Threo-5-Amino-2-methyl-4-pentadecyl-1,3-dioxane] | 64 | no effect on PKA activity |  |  |  | 
CCCCCCCCCCCCCCCC(O)C(CO)[N+](=O)[O-] (stereo not drawn) [Compound 3, Threo/erythro-2-Nitro-1,3-octadecanediol] |  |  |  | 6.5 |  | 
